In one series the target is T1, human TRPV3 (Homo sapiens, UniProt Q8NET8).
T1 construct: expressed in transfected cells
T1 sequence (Q8NET8 1-790): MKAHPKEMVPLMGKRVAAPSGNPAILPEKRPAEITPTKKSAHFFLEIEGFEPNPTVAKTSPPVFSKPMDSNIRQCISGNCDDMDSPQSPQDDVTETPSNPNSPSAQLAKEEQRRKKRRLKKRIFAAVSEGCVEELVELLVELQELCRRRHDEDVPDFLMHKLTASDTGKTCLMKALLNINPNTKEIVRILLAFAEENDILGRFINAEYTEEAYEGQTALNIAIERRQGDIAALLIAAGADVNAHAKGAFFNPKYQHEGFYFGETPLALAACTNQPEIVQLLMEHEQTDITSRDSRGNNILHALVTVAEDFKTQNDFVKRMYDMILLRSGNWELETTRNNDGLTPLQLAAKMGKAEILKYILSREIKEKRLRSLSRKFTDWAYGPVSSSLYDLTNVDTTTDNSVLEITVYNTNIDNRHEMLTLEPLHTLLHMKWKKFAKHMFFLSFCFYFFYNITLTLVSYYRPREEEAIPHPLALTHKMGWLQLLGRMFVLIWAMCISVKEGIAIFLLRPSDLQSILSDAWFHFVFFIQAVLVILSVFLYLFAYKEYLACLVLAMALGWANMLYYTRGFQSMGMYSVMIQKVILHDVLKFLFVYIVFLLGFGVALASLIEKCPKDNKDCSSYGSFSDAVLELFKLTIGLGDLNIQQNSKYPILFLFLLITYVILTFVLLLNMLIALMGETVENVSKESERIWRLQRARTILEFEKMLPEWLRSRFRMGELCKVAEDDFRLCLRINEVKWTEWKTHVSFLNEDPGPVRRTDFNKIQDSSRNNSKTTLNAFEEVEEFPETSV
The experiment in a line: In vitro antagonism of recombinant human TRPV3 activation (FLIPR Tetra calcium assay, 2-APB as agonist). In kind it is cell-based. Particulars: HEK293 cells stably expressing human TRPV3; 2-APB 80 μM; range class; read-out: IC50 (reported range). The method, boiled down: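 Readout is FLIPR fluorescence, max minus min as percent of uninhibited 2-APB response, giving IC50 (usually mean of ≥2 runs). Stable human TRPV3 HEK293 cells, Calcium-4 dye-loaded, got test compound then, three minutes later, 80 μM 2-APB (EC80); run length 10 min.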

Series [1] is described as follows: In vitro human microsomal stability assay. In kind it is in vitro ADME. The method, boiled down:
(§1)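 Stability readout reflects compound turnover by hepatic microsomes from Sprague-Dawley rats or from humans, according to the assay. Reactions at 37 °C contained NADPH, which was present in the zero-time plates as well.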

The nature of series [2]: In vitro rat microsomal stability assay. In kind it is in vitro ADME, rat (Sprague-Dawley). A digest of the protocol:
as §1

The mark [3] stands for this setting: Sprague-Dawley, rat, 0.5 h, 0.5 μM, pH 7.4.
Where [4] appears, read: 0.5 μM substrate, 0.25 mg/mL microsomal protein, pH 7.4, 37° C., NADPH, 30 minutes.

Some results are limits rather than exact numbers.

Take `CC1(O)CC(c2ccnc(C(F)(F)F)c2)(C(O)c2ccccn2)C1` [Example 307, trans-3-[(S)-hydroxy(pyridin-2-yl)methyl]-1-methyl-3-[2-(trifluoromethyl)-pyridin-4-yl]cyclobutanol]: the IC50 on human TRPV3 was 5100 to 20000 nM. In addition, the “HUMAN MICROSOMAL STABILITY (% REMAINING AFTER 30 MINUTES)” value in series [1] (human, 0.5 h, 0.5 μM, pH 7.4) worked out at 73%. Also, in series [2] (setting [3]), the “RAT MICROSOMAL STABILITY (% REMAINING AFTER 30 MINUTES)” value is reported as greater than 85%.

On to `OC(c1ccccn1)C1(c2cccc(OC(F)(F)F)c2)CCNCC1` (stereo not drawn) [Example 148, pyridin-2-yl{4-[3-(trifluoromethoxy)phenyl]piperidin-4-yl}methanol], for which the IC50 at human TRPV3 fell in the range of 1100 to 5000 nM. Also, the “HUMAN MICROSOMAL STABILITY (% REMAINING AFTER 30 MINUTES)” value in series [1] (setting [4]) was greater than 85%. In addition, in series [2] (setting [4]), the “RAT MICROSOMAL STABILITY (% REMAINING AFTER 30 MINUTES)” value is 53%.

Turning to `OC(c1ccccn1)C1(c2nc3ccc(Cl)cc3s2)CCC1` (stereo not drawn) [Example 292, [1-(6-chloro-1,3-benzothiazol-2-yl)cyclobutyl](pyridin-2-yl)methanol], at human TRPV3, the IC50 fell in the range of 501 to 1000 nM. In addition, the “HUMAN MICROSOMAL STABILITY (% REMAINING AFTER 30 MINUTES)” value in series [1] (human, 0.5 h, 0.5 μM, pH 7.4) is given as 19%. Also, in series [2] (setting [3]), the “RAT MICROSOMAL STABILITY (% REMAINING AFTER 30 MINUTES)” value is 5.4%.

For the molecule `OC(c1ccccn1)C1(c2ccc(F)c(F)c2)CCCO1` (stereo not drawn) [Example 109, (syn)-[2-(3,4-difluorophenyl)tetrahydrofuran-2-yl](pyridin-2-yl)methanol], the IC50 on human TRPV3 fell in the range of 5100 to 20000 nM. The “HUMAN MICROSOMAL STABILITY (% REMAINING AFTER 30 MINUTES)” value in series [1] (human, 0.5 h, 0.5 μM, pH 7.4) is 45%. Also, the “RAT MICROSOMAL STABILITY (% REMAINING AFTER 30 MINUTES)” value in series [2] (setting [3]) came out at 0.74%.

Regarding `OC(c1ccccn1)C1(Cc2cccc(F)c2)CCC1` (stereo not drawn) [Example 254, [1-(3-fluorobenzyl)cyclobutyl](pyridin-2-yl)methanol], the IC50 at human TRPV3 was 1100 to 5000 nM. Besides, the “HUMAN MICROSOMAL STABILITY (% REMAINING AFTER 30 MINUTES)” value in series [1] (human, 0.5 h, 0.5 μM, pH 7.4) is 1.1%. Besides, the “RAT MICROSOMAL STABILITY (% REMAINING AFTER 30 MINUTES)” value in series [2] (setting [3]) is on record as 0.57%.

Consider `OC(C1CCCc2cccnc21)C1(c2ccc(C(F)(F)F)cc2)CCC1` (stereo not drawn) [Example 183, (anti)-5,6,7,8-tetrahydroquinolin-8-yl{1-[4-(trifluoromethyl)phenyl]-cyclobutyl}methanol], for which the IC50 on human TRPV3 lay within 1100 to 5000 nM. Also, the “HUMAN MICROSOMAL STABILITY (% REMAINING AFTER 30 MINUTES)” value in series [1] (human, 0.5 h, 0.5 μM, pH 7.4) was less than 0.01%. In series [2] (setting [3]), the “RAT MICROSOMAL STABILITY (% REMAINING AFTER 30 MINUTES)” value is recorded as less than 0.01%.

As to `OC1CC(c2ccc(Cl)c(Cl)c2)(C(O)c2ccccn2)C1` (single isomer, unassigned) [Example 118], the IC50 at human TRPV3 was 50 to 500 nM. Further, the “HUMAN MICROSOMAL STABILITY (% REMAINING AFTER 30 MINUTES)” value in series [1] (human, 0.5 h, 0.5 μM, pH 7.4) was greater than 85%. Moreover, in series [2] (setting [3]), the “RAT MICROSOMAL STABILITY (% REMAINING AFTER 30 MINUTES)” value worked out at 74%.

Consider `OC(c1ccccn1)C1(c2cccc(C(F)(F)F)c2)CCC1` (stereo not drawn) [Example 6, pyridin-2-yl{1-[3-(trifluoromethyl)phenyl]cyclobutyl}methanol], for which, at human TRPV3, the IC50 was in the range of 50 to 500 nM. Moreover, the “HUMAN MICROSOMAL STABILITY (% REMAINING AFTER 30 MINUTES)” value in series [1] (human, 0.5 h, 0.5 μM, pH 7.4) was found to be 1.2%. Moreover, the “RAT MICROSOMAL STABILITY (% REMAINING AFTER 30 MINUTES)” value in series [2] (setting [3]) turned out to be 2.3%.

For `OC1CC(c2cc(C(F)(F)F)ccn2)(C(O)c2ccccn2)C1` [Example 282, cis-3-[(S)-hydroxy(pyridin-2-yl)methyl]-3-[4-(trifluoromethyl)pyridin-2-yl]-cyclobutanol], on human TRPV3, the concentration for half-maximal inhibition (IC50) was 501 to 1000 nM. In addition, the “HUMAN MICROSOMAL STABILITY (% REMAINING AFTER 30 MINUTES)” value in series [1] (human, 0.5 h, 0.5 μM, pH 7.4) is recorded as greater than 85%. For the same molecule, the “RAT MICROSOMAL STABILITY (% REMAINING AFTER 30 MINUTES)” value in series [2] (setting [3]) was greater than 85%.

As to `N[C@H]1CCC[C@@H]1[C@H](O)C1(c2ccc(OC(F)(F)F)cc2)CCC1` [Example 222, (S)-[(1S,2S)-2-aminocyclopentyl]{1-[4-(trifluoromethoxy)phenyl]-cyclobutyl}methanol], the IC50 on human TRPV3 is 1100 to 5000 nM. The “HUMAN MICROSOMAL STABILITY (% REMAINING AFTER 30 MINUTES)” value in series [1] (human, 0.5 h, 0.5 μM, pH 7.4) is reported as greater than 85%. In series [2] (setting [3]), the “RAT MICROSOMAL STABILITY (% REMAINING AFTER 30 MINUTES)” value worked out at 59%.
